≈ marks a conversion by molar mass, not a printed value. Where “and” joins values, the source holds several entries; their conditions need not be identical. Equal values may be shown once. Some results are limits rather than exact numbers.

Experimental findings from patent US11401277B2, “Anti-bacterial heterocyclic compounds and their synthesis” (Bugworks Research, Inc., priority 2017, dated 2022) are described below.

The subject of assay [1] is Proteus mirabilis ATCC 43071. Put plainly: MIC studies in LB Media. Conditions: ATCC43071, read-out: Minimum Inhibitory Concentration in LB Media, P. mi. Type of assay: cell-based. The method, then:
(§1) Bacterial cultures that were stored as glycerol stocks at −80° C. were sub cultured on LB agar plates to obtain isolated colonies. A single colony of each strain was cultured in LB broth. The cultures were incubated at 37° C., 200 rpm till they reach an optical density (OD at 600 nm) of 0.8 to 1. […] Test compounds were dissolved in dimethyl sulfoxide (DMSO) to a stock concentration of 4 mg/ml. A two-fold dilution series of this DMSO stock was prepared in a 96 well V bottom microtitre plate from rows A to H. A 3 μL volume of these dilutions were transferred to a 96-well flat bottom microtitre assay plate. Controls to monitor the effects of DMSO and media sterility were included. Each well was inoculated with 150 μL of the above diluted culture. The plates were incubated at 37° C. overnight in a humidified incubator. The following morning, the plates were read using a Spectrophotometer at 600 nm wavelength.

The test system of assay [2] is P. aurigenosa ATCC 27853. Put plainly: MIC studies in LB Media. Type of assay: cell-based. Conditions: Pseudomonas aeruginosa, ATCC27853, read-out: Minimum Inhibitory Concentration in LB Media, P. ae. The procedure: as §1
Assay [3] relates to K. pneumoniae ATCC 13883. As to the kind of experiment: MIC studies in LB Media. Conditions: Klebsiella pneumoniae, ATCC13883, read-out: Minimum Inhibitory Concentration in LB Media, K. pn. Format: cell-based. The method, then:
as §1

The test system of assay [4] is S. aureus ATCC 29213. Put plainly: MIC studies in LB Media. Type of assay: cell-based. Conditions: Staphylococcus aureus, ATCC29213, MIC = 90% inhibition of growth, read-out: Minimum Inhibitory Concentration in LB Media, S. au. The method, then: as §1
For assay [5], the system named is E. faecalis ATCC 29212. As to the kind of experiment: MIC studies in LB Media. Type of assay: cell-based. Particulars: Enterococcus faecalis, ATCC29212, read-out: Minimum Inhibitory Concentration in LB Media, E. fa. The procedure:
as §1

The test system of assay [6] is Enterobacter cloacae ATCC 13047. As to the kind of experiment: MIC studies in LB Media. Format: cell-based. Conditions: ATCC13047, read-out: Minimum Inhibitory Concentration in LB Media, E. cl. The method, then: as §1
Assay [7] has as its system Morganella morganii ATCC 25830. As to the kind of experiment: MIC studies in LB Media. Type of assay: cell-based. Particulars: ATCC25830, read-out: Minimum Inhibitory Concentration in LB Media, M. mo. The procedure: as §1
Assay [8] concerns E. coli ATCC 25922. As to the kind of experiment: MIC studies in LB Media. Format: cell-based. Conditions: Escherichia coli, ATCC25922, read-out: Minimum Inhibitory Concentration in LB Media, E. co. The method, then:
as §1

The test system of assay [9] is A. baumannii ATCC 19606. As to the kind of experiment: MIC studies in LB Media. Particulars: Acinetobacter baumannii, ATCC19606, read-out: Minimum Inhibitory Concentration in LB Media, A. ba. Type of assay: cell-based. The method, then:
as §1

Assay [10] concerns Citrobacter freundii ATCC 43864. Put plainly: MIC studies in LB Media. Type of assay: cell-based. Particulars: ATCC43864, read-out: Minimum Inhibitory Concentration in LB Media, C. fr. The method, then: as §1
The target of assay [11] is T1, hERG potassium channel (Homo sapiens, UniProt Q12809).
T1 construct: Chinese Hamster Ovary cell line stably expressing the full-length hERG potassium channel; expressed in transfected cells
Put plainly: hERG inhibition assay, QPatch HTX automated electrophysiology. Type of assay: cell-based. Particulars: CHO cell line expressing hERG; whole-cell patch clamp, room temperature. The procedure:
The compounds were tested for inhibition of the human ether a go-go related gene (hERG) K+ channel using QPatch HTX automated electrophysiology.
Compounds of Formula I were solubilised to 100 mM in DMSO before dilution in HBPS to 300 μM.
Electrophysiological recordings were made from a Chinese Hamster Ovary cell line stably expressing the full-length hERG potassium channel. Single cell ionic currents were measured in whole-cell patch clamp configuration at room temperature (21-23° C.) using the QPatch HTX platform (Sophion). Intracellular solution contained (mM): 120 KF, 20 KCl, 10 EGTA, 10 HEPES and was buffered to pH 7.3. […] Cells were clamped at a holding potential of −80 mV. Cells were stepped to +20 mV for 2 s then −40 mV for 3 s before returning to the holding potential. This sweep was repeated 10 times at 10 s intervals. hERG currents were measured from the tail step and referenced to the holding current. Compounds were then incubated for 2 minutes prior to a second measurement of ion channel current using an identical pulse train.

Assay [12] addresses E. coli DNA gyrase (Escherichia coli, UniProt P0AES4+P0AES6). As to the kind of experiment: biochemical. Particulars: gel based supercoiling assay; read-out: E. coli DNA Gyrase IC50.
Assay [13] has as its target E. coli topoisomerase IV (Escherichia coli, UniProt P0AFI2+P20083). As to the kind of experiment: biochemical. Particulars: gel based decatenation assay; read-out: E. coli Topo IV IC50.
Assay [14] has as its system E. coli clinical strains. As to the kind of experiment: Susceptibility (MIC50 and MIC90 determination) studies, clinical strains. Format: cell-based. Conditions: CLSI.
The subject of assay [15] is K. pneumoniae clinical strains. The description is as above. Type of assay: cell-based. Particulars: CLSI.
Assay [16] relates to A. baumanni clinical strains. The description is as above. Type of assay: cell-based. Conditions: CLSI.
Assay [17] concerns P. aeruginosa [ATCC27853]. Put plainly: Neutropenic Lung Infection Model in Rat. Type of assay: in vivo. Particulars: 30 mg/kg, i.v. bolus. The procedure: Animals were placed into an induction chamber and anaesthesia was induced by exposing the animals to 3-5% Isoflurane in an oxygen flow set at approximately (˜) 1 liter per minute (LPM). […] A gentle mixing of inoculum between two animals was followed for uniform distribution.
Meropenem was formulated in saline.
Entire Lung was aseptically isolated, weighed and placed into 1 mL of sterile CSDB broth, and homogenized (Omni Tip (220 V hand held)). Serial ten-fold dilutions of the lungs homogenates were prepared in sterile CSD broth and 0.05 mL of four dilutions for each tissue was plated onto CSDA agar plates. Bacterial colonies were enumerated following overnight incubation at 37° C. Bacterial densities were estimated as Log10 CFU/g lung. The Mean±SD Log10 CFU/g lung was estimated in each group.

Assay [18] deals with E. cloacae clinical strains. Put plainly: Susceptibility (MIC50 and MIC90 determination) studies, clinical strains. Type of assay: cell-based. Particulars: CLSI.
For assay [19], the system named is E. coli [ATCC25922]. As to the kind of experiment: Urinary Tract Infection Rat Model (kidneys, bladder). Particulars: 30 mg/kg, i.v. bolus.
Assay [20] relates to P. aurigenosa clinical strains. Put plainly: Susceptibility (MIC50 and MIC90 determination) studies, clinical strains. Type of assay: cell-based. Particulars: CLSI.
The mark [21] stands for this setting: Escherichia coli, E. coli clinical strains.
Where [22] appears, read: Klebsiella pneumoniae, Kpn clinical strains.
Setting [23] is: individual animals, 24 h post infection.

Sequence of E. coli topoisomerase IV (P20083 whole entry): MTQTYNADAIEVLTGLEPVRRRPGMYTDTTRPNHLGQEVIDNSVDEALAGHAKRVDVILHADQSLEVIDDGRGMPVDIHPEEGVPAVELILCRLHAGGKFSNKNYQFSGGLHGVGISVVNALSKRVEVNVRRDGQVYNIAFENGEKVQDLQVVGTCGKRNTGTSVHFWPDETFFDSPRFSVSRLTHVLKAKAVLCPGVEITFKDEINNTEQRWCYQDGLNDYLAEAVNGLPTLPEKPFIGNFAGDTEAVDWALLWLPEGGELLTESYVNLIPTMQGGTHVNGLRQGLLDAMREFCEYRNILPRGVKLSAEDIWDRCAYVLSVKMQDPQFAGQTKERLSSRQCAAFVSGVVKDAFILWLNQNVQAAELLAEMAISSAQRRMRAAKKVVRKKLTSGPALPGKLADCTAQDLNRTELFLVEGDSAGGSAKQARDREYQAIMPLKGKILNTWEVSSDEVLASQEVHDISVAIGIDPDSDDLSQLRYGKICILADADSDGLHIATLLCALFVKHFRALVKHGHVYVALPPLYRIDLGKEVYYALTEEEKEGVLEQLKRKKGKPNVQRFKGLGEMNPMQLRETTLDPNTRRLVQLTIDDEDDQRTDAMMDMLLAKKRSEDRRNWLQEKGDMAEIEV
Sequence of E. coli topoisomerase IV (P0AFI2 whole entry): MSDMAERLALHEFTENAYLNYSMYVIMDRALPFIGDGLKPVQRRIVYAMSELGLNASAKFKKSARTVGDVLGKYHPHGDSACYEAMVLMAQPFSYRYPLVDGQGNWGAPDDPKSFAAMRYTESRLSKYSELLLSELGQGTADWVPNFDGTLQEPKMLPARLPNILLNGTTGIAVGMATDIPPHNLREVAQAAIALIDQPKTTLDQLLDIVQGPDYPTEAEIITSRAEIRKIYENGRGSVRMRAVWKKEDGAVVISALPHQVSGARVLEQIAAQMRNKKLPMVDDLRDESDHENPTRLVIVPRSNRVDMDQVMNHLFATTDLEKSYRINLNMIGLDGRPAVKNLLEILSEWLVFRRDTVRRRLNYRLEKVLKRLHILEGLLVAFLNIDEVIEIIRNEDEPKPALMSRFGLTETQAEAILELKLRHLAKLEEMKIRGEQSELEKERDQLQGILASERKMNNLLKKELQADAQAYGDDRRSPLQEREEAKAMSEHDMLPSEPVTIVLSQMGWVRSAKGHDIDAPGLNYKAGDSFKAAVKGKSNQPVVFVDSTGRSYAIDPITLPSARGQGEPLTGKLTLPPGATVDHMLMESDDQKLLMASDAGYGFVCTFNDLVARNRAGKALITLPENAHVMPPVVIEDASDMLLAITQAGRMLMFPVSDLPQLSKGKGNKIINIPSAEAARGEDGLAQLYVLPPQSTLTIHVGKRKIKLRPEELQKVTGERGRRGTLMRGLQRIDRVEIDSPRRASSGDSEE
Sequence of E. coli DNA gyrase (P0AES4 whole entry, one chain of several): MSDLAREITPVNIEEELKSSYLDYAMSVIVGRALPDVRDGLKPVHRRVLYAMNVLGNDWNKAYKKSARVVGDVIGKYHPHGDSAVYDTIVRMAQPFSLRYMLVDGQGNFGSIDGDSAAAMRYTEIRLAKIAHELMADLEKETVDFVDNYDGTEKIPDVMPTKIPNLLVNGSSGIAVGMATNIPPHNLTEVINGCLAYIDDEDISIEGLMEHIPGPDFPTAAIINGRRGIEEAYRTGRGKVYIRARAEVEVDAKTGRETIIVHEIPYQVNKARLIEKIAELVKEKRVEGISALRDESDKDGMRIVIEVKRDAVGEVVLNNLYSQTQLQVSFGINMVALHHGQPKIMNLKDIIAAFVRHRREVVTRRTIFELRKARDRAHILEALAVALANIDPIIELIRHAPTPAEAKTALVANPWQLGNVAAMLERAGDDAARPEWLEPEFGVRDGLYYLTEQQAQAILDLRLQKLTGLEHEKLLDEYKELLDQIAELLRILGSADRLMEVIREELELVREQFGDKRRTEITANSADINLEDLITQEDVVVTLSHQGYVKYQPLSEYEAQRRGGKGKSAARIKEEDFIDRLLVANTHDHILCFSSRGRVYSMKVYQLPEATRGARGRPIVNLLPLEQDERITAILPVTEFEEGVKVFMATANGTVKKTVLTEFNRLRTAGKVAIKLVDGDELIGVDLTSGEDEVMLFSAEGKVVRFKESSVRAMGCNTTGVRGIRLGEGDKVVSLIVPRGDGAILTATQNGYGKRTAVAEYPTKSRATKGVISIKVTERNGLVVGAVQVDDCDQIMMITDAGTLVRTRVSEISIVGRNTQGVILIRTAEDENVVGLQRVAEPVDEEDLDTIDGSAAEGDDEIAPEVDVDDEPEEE
T1 sequence (Q12809 whole entry): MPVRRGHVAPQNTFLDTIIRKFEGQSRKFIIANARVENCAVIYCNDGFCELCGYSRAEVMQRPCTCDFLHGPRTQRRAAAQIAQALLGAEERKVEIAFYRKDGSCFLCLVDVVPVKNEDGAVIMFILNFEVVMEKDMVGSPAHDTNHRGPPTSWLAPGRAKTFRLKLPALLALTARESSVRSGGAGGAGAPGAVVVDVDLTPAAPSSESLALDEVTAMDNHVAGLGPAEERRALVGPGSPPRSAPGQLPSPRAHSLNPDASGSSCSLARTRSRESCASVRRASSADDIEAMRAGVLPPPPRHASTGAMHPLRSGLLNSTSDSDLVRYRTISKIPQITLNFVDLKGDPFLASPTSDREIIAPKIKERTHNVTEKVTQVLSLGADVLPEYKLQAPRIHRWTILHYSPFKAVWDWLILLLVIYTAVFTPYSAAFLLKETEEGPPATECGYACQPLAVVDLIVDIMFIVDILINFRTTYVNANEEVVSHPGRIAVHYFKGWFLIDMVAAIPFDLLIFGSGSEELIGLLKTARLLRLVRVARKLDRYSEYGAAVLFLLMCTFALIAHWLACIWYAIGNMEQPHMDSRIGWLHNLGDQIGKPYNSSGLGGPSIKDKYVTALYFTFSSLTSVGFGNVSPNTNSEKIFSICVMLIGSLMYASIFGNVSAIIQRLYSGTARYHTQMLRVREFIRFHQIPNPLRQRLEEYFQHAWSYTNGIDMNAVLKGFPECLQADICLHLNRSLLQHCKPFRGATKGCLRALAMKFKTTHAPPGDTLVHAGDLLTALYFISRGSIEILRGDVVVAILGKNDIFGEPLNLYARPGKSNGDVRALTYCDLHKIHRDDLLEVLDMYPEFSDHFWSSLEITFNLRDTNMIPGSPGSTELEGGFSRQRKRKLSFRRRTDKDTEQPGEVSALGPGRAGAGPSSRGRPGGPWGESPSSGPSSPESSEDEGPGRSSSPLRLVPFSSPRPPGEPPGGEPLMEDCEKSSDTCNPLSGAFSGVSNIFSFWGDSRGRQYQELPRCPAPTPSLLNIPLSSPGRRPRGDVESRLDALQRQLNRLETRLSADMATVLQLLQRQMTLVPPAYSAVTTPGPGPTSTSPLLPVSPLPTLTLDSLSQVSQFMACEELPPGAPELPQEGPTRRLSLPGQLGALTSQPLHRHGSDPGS

As usually defined, the IC50 is the concentration needed to halve the response being measured. Regarding `Cn1c(=O)ccc2nccc(OCCNC[C@H]3CN(c4ccc5c(n4)NC(=O)CO5)C(=O)O3)c21` [Compound 1, (S)-6-(5-(((2-((5-methyl-6-oxo-5,6-dihydro-1,5-naphthyridin-4-yl)oxy)ethyl)amino)methyl)-2-oxooxazolidin-3-yl)-2H-pyrido[3,2-b][1,4]oxazin-3(4H)-one], the MIC was 16 µg/mL (≈ 34.3 µM) in assay [1]; 4 µg/mL (≈ 8.58 µM) in assay [2]; 1 µg/mL (≈ 2.14 µM) in [3]; 0.25 µg/mL (≈ 0.536 µM) in assay [4]; 1 µg/mL (≈ 2.14 µM) in [5]; 8 µg/mL (≈ 17.2 µM) in assay [6]. Besides, the MIC worked out at 2 µg/mL (≈ 4.29 µM) in assay [7], 0.5 µg/mL (≈ 1.07 µM) in assay [8], 2 µg/mL (≈ 4.29 µM) in assay [9] and 1 µg/mL (≈ 2.14 µM) in assay [10]. The values for the IC50 in [11], in assay [12] and in assay [13] were more than 100000 nM, less than 250 nM and less than 250 nM, respectively.

Broadly, the MIC50 is an inhibitory concentration at the 50% level, which refers to growth in some studies and to a panel of isolates in others. A higher MIC50 goes with weaker potency. In general, MIC90 refers to an inhibitory concentration at the 90% level, which refers to growth in some studies and to a panel of isolates in others. As to `C[C@@H](O)[C@H]1C(=O)N2C(C(=O)O)=C(S[C@@H]3CN[C@H](C(=O)N(C)C)C3)[C@H](C)[C@H]12` [Meropenem, meropenem, reference compound], the Minimum (MIC) was 0.03 µg/mL in [14] (E. coli clinical strains, MIC50/MIC90 in μg/ml); 0.03 µg/mL in assay [15] (Kpn clinical strains, MIC50/MIC90 in μg/ml); 0.03125 in assay [16] (Aba clinical strains, MIC50/MIC90 in μg/ml, in µg/mL); 0.06 µg/mL in assay [18] (MIC50/MIC90 in μg/ml); 0.03 µg/mL in [20] (Pae clinical strains, MIC50/MIC90 in μg/ml). The same molecule returned an MIC ATCC25922 in assay [14] (E. coli reference strain ATCC25922, MIC50/MIC90 in μg/ml) of 0.06 µg/mL (≈ 0.156 µM). In addition, the MIC50 was found to be 0.06 µg/mL (≈ 0.156 µM) in assay [14] (setting [21]); 1 µg/mL (≈ 2.61 µM) in assay [15] (setting [22]); 8 µg/mL (≈ 20.9 µM) in assay [16] (Aba clinical strains); 0.25 µg/mL (≈ 0.652 µM) in [18] (Enterobacter cloacae); 2 µg/mL (≈ 5.22 µM) in assay [20] (Pae clinical strains). Besides, the MIC90 in assay [14] (setting [21]) stood at 4 µg/mL (≈ 10.4 µM); in [15] (setting [22]), 16 µg/mL (≈ 41.7 µM); in assay [16] (Aba clinical strains) it was 32 µg/mL (≈ 83.4 µM); in [18] (Enterobacter cloacae) it was 16 µg/mL (≈ 41.7 µM); in assay [20] (Pae clinical strains), 8 µg/mL (≈ 20.9 µM). For the same molecule, the MIC ATCC13883 in [15] (Kpn reference strain ATCC13883, MIC50/MIC90 in μg/ml) came out at 0.06 µg/mL (≈ 0.156 µM). The molecule further came in with an MIC ATCC19606 in [16] (Aba reference strain ATCC19606, MIC50/MIC90 in μg/ml) of 0.5 µg/mL (≈ 1.3 µM). Moreover, the “MEAN ± SD (Log10 CFU/g Lung)” value in assay [17] came out at 5.43 ± 0.14 Log10 CFU/g Lung. Moreover, the “Mean Log 10 CFU/g lung reduction (wrt 4 h PI control: 6.52 Log10CFU/g lung)” value in assay [17] was determined as 1.09 Log 10 CFU/g lung. The “Log10 CFU/g Lung” value in assay [17] (setting [23]) was 5.35 Log10 CFU/g Lung and 5.36 Log10 CFU/g Lung and 5.59 Log10 CFU/g Lung. The “MEAN ± SD (Log10 CFU/g kidneys)” value in assay [19] is on record as 3.83 ± 0.27 Log10 CFU/g kidneys. Also, in assay [19], the “MEAN ± SD (Log10 CFU/ml Bladder)” value amounted to 4.69 ± 0.32 Log10 CFU/ml Bladder. The “Mean Log10CFU/g kidney reduction (wrt 4 h PI control: 4.53 Log10CFU/g kidneys)” value in [19] was 0.70 Log10CFU/g kidney. For the same molecule, in assay [19], the “Mean Log10 CFU/ml Bladder reduction (wrt 4 h PI control: 5.72 CFU/ml Bladder)” value was 1.03 Log10 CFU/ml Bladder. The “Log10 CFU/g (Left Kidney)” value in [19] (setting [23]) is 3.61 Log10 CFU/g and 3.92 Log10 CFU/g and 4.06 Log10 CFU/g. Also, the “Log10 CFU/g (Right Kidney)” value in [19] (setting [23]) is 3.41 Log10 CFU/g and 4.12 Log10 CFU/g and 3.87 Log10 CFU/g. For the same molecule, the “Log10 CFU/ml Bladder” value in assay [19] (setting [23]) was 4.87 Log10 CFU/ml Bladder and 4.33 Log10 CFU/ml Bladder and 4.89 Log10 CFU/ml Bladder. For the same molecule, the MIC ATCC27853 in assay [20] (Pae reference strain ATCC27853, MIC50/MIC90 in μg/ml) was 0.5 µg/mL (≈ 1.3 µM).

With `Cn1c(=O)cnc2ccc(F)c(OCCNC[C@H]3CN(c4cnc5c(n4)NC(=O)CO5)C(=O)O3)c21` [Compound 7, (S)-6-(5-(((2-((6-fluoro-4-methyl-3-oxo-3,4-dihydroquinoxalin-5-yl)oxy)ethyl)amino)methyl)-2-oxooxazolidin-3-yl)-2H-pyrazino[2,3-b][1,4]oxazin-3(4H)-one], the MIC in [1] is 0.25 µg/mL (≈ 0.515 µM); in assay [2], 0.25 µg/mL (≈ 0.515 µM); in assay [3], 0.06 µg/mL (≈ 0.124 µM); in [4] it was not above 0.015 µg/mL; in assay [5], 0.06 µg/mL (≈ 0.124 µM); in assay [6], 0.125 µg/mL (≈ 0.258 µM). The MIC was determined as 0.06 µg/mL (≈ 0.124 µM) in [7], 0.03 µg/mL (≈ 0.0618 µM) in assay [8], 0.06 µg/mL (≈ 0.124 µM) in assay [9] and 0.06 µg/mL (≈ 0.124 µM) in [10]. In addition, the IC50 was more than 300000 nM in assay [11], 15 nM in assay [12] and less than 220 nM in assay [13].
